Reference: ChEMBL document CHEMBL1201862, “PubChem BioAssay data set” (2004)
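48-hour exposure; five concentrations; linearly interpolated endpoints. GI50 is the concentration that inhibits growth by half.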 The source made the active and inactive calls. Rule as the data show it: active = GI50 up to about 1.1 µM and inactive = higher.

How the values were obtained:
Test in all cases: NCI anticancer screen, dose series, 48 h
DU-145 = system: DU-145
HCT-116 = system: HCT-116
HL-60 = system: HL-60
LOX IMVI = system: LOX IMVI
M14 = system: M14
MCF7 = system: MCF7
MDA-N = system: MDA-N
MOLT-4 = system: MOLT-4
NCI-H226 = system: NCI-H226
NCI-H460 = system: NCI-H460
NCI-H522 = system: NCI-H522
PC-3 = system: PC-3
SF-268 = system: SF-268
SF-295 = system: SF-295
SK-MEL-28 = system: SK-MEL-28
SK-MEL-2 = system: SK-MEL-2
SR = system: SR
TK-10 = system: TK-10
T47D = system: T47D
UACC-257 = system: UACC-257

| SMILES | GI50 (DU-145) | GI50 (HCT-116) | GI50 (HL-60) | GI50 (LOX IMVI) | GI50 (M14) | GI50 (MCF7) | GI50 (MDA-N) | GI50 (MOLT-4) | GI50 (NCI-H226) | GI50 (NCI-H460) | GI50 (NCI-H522) | GI50 (PC-3) | GI50 (SF-268) | GI50 (SF-295) | GI50 (SK-MEL-28) | GI50 (SK-MEL-2) | GI50 (SR) | GI50 (TK-10) | GI50 (T47D) | GI50 (UACC-257) |
| --- | --- | --- | --- | --- | --- | --- | --- | --- | --- | --- | --- | --- | --- | --- | --- | --- | --- | --- | --- | --- |
| CCCC(=O)NC1CCc2cc(OC)c(OC)c(OC)c2-c2ccc(OC)c(=O)cc21 (configuration not stated) | 0.00117 µM (active) | 0.000361 µM (active) | 0.000321 µM (active) | 0.00045 µM (active) | 0.000817 µM (active) | 0.000257 µM (active) | 0.000335 µM (active) | 0.000493 µM (active) | 0.000771 µM (active) | 0.000644 µM (active) | 0.000442 µM (active) | 0.000731 µM (active) | 0.00157 µM (active) | 0.000512 µM (active) | 0.01 µM (active) | 0.01 µM (active) | 0.114 µM (active) | 78.5 µM (inactive) |  |  |
| CN1c2ccccc2C(=O)NC12CCN(Cc1ccccc1)CC2 | 71.6 µM (inactive) | 44.9 µM (inactive) | 30.5 µM (inactive) | 46 µM (inactive) | 33.4 µM (inactive) | 46 µM (inactive) |  | 38.9 µM (inactive) | 27.5 µM (inactive) | 39.4 µM (inactive) |  |  | 89.7 µM (inactive) | 32 µM (inactive) | 73.8 µM (inactive) |  | 33.3 µM (inactive) | 41 µM (inactive) | 70.3 µM (inactive) | 59.6 µM (inactive) |
| O=[N+]([O-])C(/C=C(\Cl)n1nnc2ccccc21)=C(/Cl)n1nnc2ccccc21 | > 100 µM (inactive) | > 100 µM (inactive) |  | > 100 µM (inactive) | > 100 µM (inactive) |  | > 100 µM (inactive) | > 100 µM (inactive) | > 100 µM (inactive) | > 100 µM (inactive) | > 100 µM (inactive) | > 100 µM (inactive) | > 100 µM (inactive) | > 100 µM (inactive) | > 100 µM (inactive) | > 100 µM (inactive) | > 100 µM (inactive) | > 100 µM (inactive) | > 100 µM (inactive) | > 100 µM (inactive) |
| O=c1oc2ccccc2cc1-c1cc2ccccn2c1 | > 100 µM (inactive) | > 100 µM (inactive) | > 100 µM (inactive) | > 100 µM (inactive) | > 100 µM (inactive) | 0.5 µM (active) | > 100 µM (inactive) | > 100 µM (inactive) | > 100 µM (inactive) | > 100 µM (inactive) | > 100 µM (inactive) | > 100 µM (inactive) | > 100 µM (inactive) | > 100 µM (inactive) | > 100 µM (inactive) | > 100 µM (inactive) |  | > 100 µM (inactive) |  | > 100 µM (inactive) |
| CSc1nc(C#N)c(N)n1C | 64.1 µM (inactive) | > 100 µM (inactive) | > 100 µM (inactive) | > 100 µM (inactive) | > 100 µM (inactive) |  | > 100 µM (inactive) | > 100 µM (inactive) | > 100 µM (inactive) | > 100 µM (inactive) | > 100 µM (inactive) | > 100 µM (inactive) | > 100 µM (inactive) | > 100 µM (inactive) | > 100 µM (inactive) | > 100 µM (inactive) | > 100 µM (inactive) | > 100 µM (inactive) | > 100 µM (inactive) | > 100 µM (inactive) |
| Oc1cc2cc(-c3ccccc3)[nH]c2c2ccccc12 |  | 17.1 µM (inactive) | 8.15 µM (inactive) | 16.1 µM (inactive) | 20.3 µM (inactive) |  |  | 39.9 µM (inactive) | > 100 µM (inactive) | 24 µM (inactive) | 15.3 µM (inactive) |  | 47.1 µM (inactive) | 7.1 µM (inactive) | 42.3 µM (inactive) | 20.3 µM (inactive) | > 57 µM (inactive) | > 100 µM (inactive) |  | 16 µM (inactive) |
| COc1cc(/C=N\c2ccc(C(C)C)cc2)cc(OC)c1OC |  | > 100 µM (inactive) | > 40.9 µM (inactive) | > 54.7 µM (inactive) | > 100 µM (inactive) |  |  | > 100 µM (inactive) | > 100 µM (inactive) | 97.3 µM (inactive) | > 59.7 µM (inactive) |  | > 100 µM (inactive) | > 100 µM (inactive) | > 100 µM (inactive) | > 100 µM (inactive) | 54.3 µM (inactive) | > 100 µM (inactive) |  | > 100 µM (inactive) |
| O=c1cn[nH]c(=S)n1/N=C/c1c[nH]c2ccccc12 | > 100 µM (inactive) | > 100 µM (inactive) | 14.5 µM (inactive) | 30 µM (inactive) | > 100 µM (inactive) | 45.7 µM (inactive) | 87.1 µM (inactive) | 37.6 µM (inactive) |  | > 100 µM (inactive) | 39.1 µM (inactive) | 77.6 µM (inactive) | > 100 µM (inactive) | > 100 µM (inactive) | > 100 µM (inactive) | > 100 µM (inactive) | 45.3 µM (inactive) |  |  | 63 µM (inactive) |
| CC(=O)NC(CCCN(Cc1ccccc1)C(=O)NCCCl)C(=O)NCc1ccccc1 (configuration not stated) |  | > 100 µM (inactive) | > 100 µM (inactive) | > 100 µM (inactive) | > 100 µM (inactive) |  |  | > 100 µM (inactive) | > 100 µM (inactive) | > 100 µM (inactive) | > 100 µM (inactive) |  | > 100 µM (inactive) | > 100 µM (inactive) | > 100 µM (inactive) | > 100 µM (inactive) | > 100 µM (inactive) | > 100 µM (inactive) |  | > 100 µM (inactive) |
| Cc1ccc(S(=O)(=O)N/N=C(\c2nc3ccc(Cl)cc3nc2O)C(O)c2cccc([N+](=O)[O-])c2)cc1 (configuration not stated) |  | > 100 µM (inactive) | > 100 µM (inactive) | > 100 µM (inactive) | > 100 µM (inactive) |  |  | > 100 µM (inactive) | > 100 µM (inactive) | > 100 µM (inactive) | 63.4 µM (inactive) |  | > 100 µM (inactive) | > 100 µM (inactive) | > 100 µM (inactive) | > 100 µM (inactive) | > 100 µM (inactive) | > 100 µM (inactive) |  | > 100 µM (inactive) |
| COc1cc(Cn2c3c(c4cc(O)ccc42)Cc2ccccc2C3=O)cc(OC)c1 | 58.1 µM (inactive) | 34.4 µM (inactive) | > 100 µM (inactive) | 76.4 µM (inactive) | 68.1 µM (inactive) | 20.7 µM (inactive) | 12 µM (inactive) | 28.9 µM (inactive) | > 100 µM (inactive) | 62.1 µM (inactive) |  | 56.5 µM (inactive) | > 100 µM (inactive) | 25.8 µM (inactive) | 31.8 µM (inactive) | > 100 µM (inactive) | 6.46 µM (inactive) | > 100 µM (inactive) |  | > 100 µM (inactive) |
| CC(C)(C)OC(=O)NCC(CNC(=O)OC(C)(C)C)c1nc(C(N)=O)cs1 |  | > 100 µM (inactive) | > 100 µM (inactive) | > 100 µM (inactive) | > 100 µM (inactive) | > 100 µM (inactive) | > 100 µM (inactive) | > 100 µM (inactive) | > 100 µM (inactive) | > 100 µM (inactive) |  | > 100 µM (inactive) |  | > 100 µM (inactive) | > 100 µM (inactive) | > 100 µM (inactive) | > 100 µM (inactive) | > 100 µM (inactive) |  | > 100 µM (inactive) |
| CCOC(=O)C(O)(NC(=O)Nc1ccc(F)cc1)C(F)(F)F (configuration not stated) |  | > 100 µM (inactive) | > 100 µM (inactive) | > 100 µM (inactive) | > 100 µM (inactive) |  | > 100 µM (inactive) | > 100 µM (inactive) |  |  |  | > 100 µM (inactive) | > 100 µM (inactive) |  | > 100 µM (inactive) | > 100 µM (inactive) | > 100 µM (inactive) | > 100 µM (inactive) | > 100 µM (inactive) | > 100 µM (inactive) |
| O=C(O)C1=NN(c2ccc(S(=O)(=O)O)cc2)C2(C1)SCC(=O)N2c1nc2ccccc2s1 (configuration not stated) | > 100 µM (inactive) | > 100 µM (inactive) | > 100 µM (inactive) | > 100 µM (inactive) | > 100 µM (inactive) | > 100 µM (inactive) |  | > 100 µM (inactive) | 5.3 µM (inactive) | > 100 µM (inactive) | > 100 µM (inactive) | > 100 µM (inactive) | > 100 µM (inactive) | > 100 µM (inactive) | > 100 µM (inactive) | > 100 µM (inactive) | > 100 µM (inactive) | > 100 µM (inactive) | > 100 µM (inactive) | > 100 µM (inactive) |
| CCC(=O)C(CCN1CCC(N2C(=O)C(CCC#N)c3ccccc32)CC1)(c1ccccc1)c1ccccc1 (configuration not stated) | 12.2 µM (inactive) | 4.9 µM (inactive) | 4.67 µM (inactive) | 12.8 µM (inactive) | 10.1 µM (inactive) | 11.5 µM (inactive) |  | 4.56 µM (inactive) | 17.3 µM (inactive) | 11.3 µM (inactive) | 12.7 µM (inactive) | 18.5 µM (inactive) | 16.1 µM (inactive) | 13.3 µM (inactive) | 18.7 µM (inactive) | 13.9 µM (inactive) | 0.0486 µM (active) | 12.5 µM (inactive) | 7.85 µM (inactive) | 13 µM (inactive) |
| O=C(/C=C/c1ccc[nH]1)c1ccccc1 |  | > 100 µM (inactive) | 41.2 µM (inactive) | > 100 µM (inactive) | > 100 µM (inactive) |  |  | > 100 µM (inactive) | > 100 µM (inactive) | > 100 µM (inactive) | > 100 µM (inactive) |  | > 100 µM (inactive) | > 100 µM (inactive) | > 100 µM (inactive) | > 100 µM (inactive) | > 100 µM (inactive) | > 100 µM (inactive) |  | > 100 µM (inactive) |
